The text below walks through data of PMC10098062 (Molecular Plant Pathology, 2023).

For the assay, the target named is SstF F299A (SFN-sensing transcription factor, LysR family) (Xanthomonas campestris, UniProt Q8PAP2, F299A). As to the kind of experiment: biochemical.

Compound `C[S+]([O-])CCCCN=C=S` (stereo not shown) [SFN, Sulforaphane] showed a Kd of 143 µM.

What is called Kd is the equilibrium constant for the complex coming apart.
